What all share (format): in vivo
Experiment [1] has as its system apple scab pathogen (Venturia inaequalis). In words: Apple scab control test (100 ppm spray on apple seedlings). To be noted: 336 h; apple seedlings (Ralls Janet), emulsion sprayed at 100 ppm, inoculated with Venturia inaequalis, 2 weeks. As to the method:
Ralls Janet, leaf stage: 3 to 4) cultivated in unglazed pots and allowed to air-dry at room temperature. Subsequently, the seedlings were inoculated with conidiospores of apple scab pathogen (Venturia inaequalis) followed by holding for 2 weeks indoors at 20° C. and high humidity using a 12 hour light/dark cycle. The appearance of lesions on the leaves was compared with untreated seedlings to determine control effects.

For experiment [2], the system named is cucumber gray mold pathogen (Botrytis cinerea). In words: Cucumber gray mold control test. Particulars: 96 h, cucumber seedlings (Sagami Hanjiro), emulsion sprayed at 100 ppm, 4 days. As to the method:
Sagami Hanjiro, leaf stage: cotyledon) cultivated in unglazed pots, and allowed to air-dry at room temperature. Subsequently, the seedlings were drip-inoculated with conidiospore suspensions of cucumber gray mold pathogen (Botrytis cinerea) followed by holding for 4 days in a dark room at 20° C. and high humidity. The appearance of lesions on the leaves was compared with untreated seedlings to determine control effects.

For experiment [3], the system named is rice blast pathogen (Magnaporthe grisea). To be noted: rice seedlings (Koshihikari), 400 ppm dropped onto water surface, inoculated two days later.
The test system is the same in experiment [4]. Particulars: rice seedlings (Koshihikari), 400 ppm dropped onto water surface, inoculated 14 days later.

Like-named read-outs stand apart in the source and are kept apart here.

Turning to `CC(=O)C(C)(C)c1c(F)cccc1Oc1cnc2c(F)cccc2n1` [Compound 1-10, 3-[2-fluoro-6-(5-fluoro-quinoxalin-2-yloxy)-phenyl]-3-methyl-butan-2-one], the pest or weed control at 100 ppm in experiment [1] and in experiment [2] was at least 75% in each case.

With `CC(C)OC(=O)C(C)(C)c1ccccc1Oc1cnc2c(F)c(F)ccc2n1` [Compound 1-24], the control effects result in experiment [3] was “B (Control value of 40% to less than 60%)”.

For the molecule `COC(C)(C)c1ncccc1Oc1nc2ccc(F)c(F)c2nc1C` [Compound 1-35, 5,6-difluoro-2-[2-(1-methoxy-1-methyl-ethyl)-pyridin-3-yloxy]-3-methyl-quinoxaline], the pest or weed control at 100 ppm in experiment [1] and in experiment [2] was at least 75% each time.

Turning to `Cc1nc2c(F)cccc2cc1Oc1cccnc1C(C)(C)O` [a-7, 2-[(8-fluoro-2-methylquinolin-3-yloxy)pyridine-2-yl]propan-2-ol], the pest or weed control at 100 ppm in experiment [1] and in experiment [2] was at least 75% throughout.

In the case of `CC(C)(O)c1ncccc1Oc1cnc2c(F)cccc2c1` [a-8], in experiment [4], the control effects result is “B (Control value of 40% to less than 60%)”.

The molecule `CC(=O)c1ncccc1Oc1cc2cccc(F)c2nc1C` [a-9, 1-[3-(2-methyl-8-fluoroquinolin-3-yloxy)-pyridin-2-yl]-ethanone] yielded a pest or weed control at 100 ppm in experiment [1] of at least 75%.

`CC(C)(C#N)c1ncccc1Oc1cnc2c(F)cccc2c1` [a-11, 2-[3-(8-fluoro-quinolin-3-yloxy)-pyridin-2-yl]-2-methylpropionitrile]: the pest or weed control at 100 ppm in experiment [1] and in experiment [2] was at least 75% each time.

With `CCOC(=O)C(C)(C)c1ncccc1Oc1cnc2c(F)cccc2c1` [a-12, 2-[3-(8-fluoro-quinolin-3-yloxy)-pyridin-2-yl]-2-methylpropionic acid ethyl ester], the pest or weed control at 100 ppm in experiment [1] and in experiment [2] was at least 75% in each case.

As for `CC(=O)C(C)(C)c1ncccc1Oc1cnc2c(F)cccc2c1` [a-15, 3-[3-(8-fluoro-quinolin-3-yloxy)-pyridin-2-yl]-3-methyl-butan-2-one], the pest or weed control at 100 ppm in experiment [1] and in experiment [2] was at least 75% throughout.

On to `COC(C)(C)c1ncccc1Oc1cc2cccc(F)c2nc1C` [a-16, 3-[2-(2-methoxy-2-propyl)pyridin-3-yloxy]-8-fluoro-2-methylquinoline], for which the pest or weed control at 100 ppm in experiment [1] and in experiment [2] was at least 75% in each case.

Take `CC(C)(C(=O)O)c1ncccc1Oc1cnc2c(F)cccc2c1` [a-19, 2-[3-(8-fluoro-quinolin-3-yloxy)-pyridin-2-yl]-2-methylpropionic acid]: the pest or weed control at 100 ppm in experiment [1] is at least 75%.

`CC(C)(C=O)c1ncccc1Oc1cnc2c(F)cccc2c1` [a-21, 2-[3-(8-fluoro-quinolin-3-yloxy)-pyridin-2-yl]-2-methyl-propioaldehyde]: the pest or weed control at 100 ppm in experiment [1] and in experiment [2] was at least 75% each time.

In experiment [1], `CCNC(=O)C(C)(C)c1ncccc1Oc1cnc2c(F)cccc2c1` [a-55, N-ethyl-2-[3-(8-fluoro-quinolin-3-yloxy)-pyridin-2-yl]-isobutylamide] showed a pest or weed control at 100 ppm of at least 75%.

For `CCOC(C)(C)c1ncccc1Oc1cc2cccc(F)c2nc1C` [a-56, 3-[2-(2-ethoxy-2-propyl)pyridin-3-yloxy]-8-fluoro-2-methylquinoline], the pest or weed control at 100 ppm in experiment [1] and in experiment [2] was at least 75% throughout.

The term pest or weed control denotes the degree to which the test organism was suppressed or injured, in per cent. Lower therefore signals weak suppression.

The record behind these values is patent US9060517B2, “Nitrogenated heterocyclic compound and agricultural or horticultural fungicide” (Nippon Soda Co., Ltd., priority 2011, dated 2015).
